In ChEMBL document CHEMBL1201862, “PubChem BioAssay data set” (2004):
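The compound was tested at five concentrations on cells cultured in 96-well plates, with a 48-hour exposure period. Abbreviation: GI50, concentration required for 50% inhibition of growth.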 Calls of active or inactive are those of the source. Rule as the data show it: active = GI50 up to about 1.1 µM and inactive = higher.

Assays:
Assay in all cases: growth of human tumour cells (NCI), 48 h
786-0 = tested on: 786-0
A549 = tested on: A549
ACHN = tested on: ACHN
CAKI-1 = tested on: CAKI-1
CCRF-CEM = tested on: CCRF-CEM
COLO 205 = tested on: COLO 205
DU-145 = tested on: DU-145
EKVX = tested on: EKVX
HCC 2998 = tested on: HCC 2998
HCT-116 = tested on: HCT-116
HCT-15 = tested on: HCT-15
HL-60 = tested on: HL-60
HOP-62 = tested on: HOP-62
HOP-92 = tested on: HOP-92
HT-29 = tested on: HT-29
Hs-578T = tested on: Hs-578T
IGROV-1 = tested on: IGROV-1
K562 = tested on: K562
KM12 = tested on: KM12
LOX IMVI = tested on: LOX IMVI
M14 = tested on: M14
MCF7 = tested on: MCF7
MDA-MB-231 = tested on: MDA-MB-231
MDA-MB-435 = tested on: MDA-MB-435
MDA-N = tested on: MDA-N
MOLT-4 = tested on: MOLT-4
Malme-3M = tested on: Malme-3M
NCI-H226 = tested on: NCI-H226
NCI-H23 = tested on: NCI-H23
NCI-H460 = tested on: NCI-H460
NCI-H522 = tested on: NCI-H522
NCI/ADR-RES = tested on: NCI/ADR-RES
OVCAR-3 = tested on: OVCAR-3
OVCAR-4 = tested on: OVCAR-4
OVCAR-5 = tested on: OVCAR-5
OVCAR-8 = tested on: OVCAR-8
PC-3 = tested on: PC-3
RPMI-8226 = tested on: RPMI-8226
RXF 393 = tested on: RXF 393
SF-268 = tested on: SF-268
SF-295 = tested on: SF-295
SF-539 = tested on: SF-539
SK-MEL-28 = tested on: SK-MEL-28
SK-MEL-2 = tested on: SK-MEL-2
SK-MEL-5 = tested on: SK-MEL-5
SK-OV-3 = tested on: SK-OV-3
SN12C = tested on: SN12C
SNB-19 = tested on: SNB-19
SNB-75 = tested on: SNB-75
SR = tested on: SR
SW-620 = tested on: SW-620
T47D = tested on: T47D
TK-10 = tested on: TK-10
U-251 = tested on: U-251
UACC-257 = tested on: UACC-257
UACC-62 = tested on: UACC-62
UO-31 = tested on: UO-31
A498 = tested on: A498

## O=C(O)c1cc(/C=C/c2ccc(O)c(O)c2)ccc1O
786-0
  GI50: > 100 µM (inactive)
A549
  GI50: > 100 µM (inactive)
ACHN
  GI50: > 100 µM (inactive)
CAKI-1
  GI50: 32.7 µM (inactive)
CCRF-CEM
  GI50: 24.5 µM (inactive)
COLO 205
  GI50: > 100 µM (inactive)
DU-145
  GI50: > 100 µM (inactive)
EKVX
  GI50: > 100 µM (inactive)
HCC 2998
  GI50: > 100 µM (inactive)
HCT-116
  GI50: 40 µM (inactive)
HCT-15
  GI50: > 100 µM
HL-60
  GI50: 30.7 µM (inactive)
HOP-62
  GI50: > 100 µM (inactive)
HOP-92
  GI50: > 100 µM (inactive)
HT-29
  GI50: > 100 µM (inactive)
Hs-578T
  GI50: > 100 µM (inactive)
IGROV-1
  GI50: > 100 µM (inactive)
K562
  GI50: 20.3 µM (inactive)
KM12
  GI50: > 100 µM (inactive)
LOX IMVI
  GI50: > 100 µM (inactive)
M14
  GI50: 45.8 µM (inactive)
MCF7
  GI50: 23.1 µM (inactive)
MDA-MB-231
  GI50: > 100 µM (inactive)
MDA-MB-435
  GI50: 77.8 µM (inactive)
MDA-N
  GI50: 34.8 µM (inactive)
MOLT-4
  GI50: 30.8 µM (inactive)
Malme-3M
  GI50: > 100 µM (inactive)
NCI-H226
  GI50: > 100 µM (inactive)
NCI-H23
  GI50: > 100 µM (inactive)
NCI-H460
  GI50: > 100 µM (inactive)
NCI-H522
  GI50: > 100 µM (inactive)
NCI/ADR-RES
  GI50: > 100 µM (inactive)
OVCAR-3
  GI50: > 100 µM (inactive)
OVCAR-4
  GI50: > 100 µM (inactive)
OVCAR-5
  GI50: > 100 µM (inactive)
OVCAR-8
  GI50: > 100 µM (inactive)
PC-3
  GI50: > 100 µM (inactive)
RPMI-8226
  GI50: 31 µM (inactive)
RXF 393
  GI50: 28.1 µM (inactive)
SF-268
  GI50: > 100 µM (inactive)
SF-295
  GI50: > 100 µM (inactive)
SF-539
  GI50: > 100 µM (inactive)
SK-MEL-28
  GI50: > 100 µM (inactive)
SK-MEL-2
  GI50: > 100 µM (inactive)
SK-MEL-5
  GI50: > 100 µM (inactive)
SK-OV-3
  GI50: > 100 µM (inactive)
SN12C
  GI50: > 100 µM (inactive)
SNB-19
  GI50: > 100 µM (inactive)
SNB-75
  GI50: > 100 µM (inactive)
SR
  GI50: 38.3 µM (inactive)
SW-620
  GI50: > 10 µM (inactive)
T47D
  GI50: > 100 µM (inactive)
TK-10
  GI50: > 100 µM (inactive)
U-251
  GI50: > 100 µM (inactive)
UACC-257
  GI50: > 100 µM (inactive)
UACC-62
  GI50: > 100 µM (inactive)
UO-31
  GI50: > 100 µM (inactive)

## CCCCCCCCCCCCCCCCCCOC[C@H](COP(=O)(O)O[C@H]1[C@H](O)[C@@H](O)[C@H](O)C[C@H]1O)OC
A498
  GI50: > 100 µM (inactive)
RPMI-8226
  GI50: 22.1 µM (inactive)
SNB-75
  GI50: 19.2 µM (inactive)
SR
  GI50: 15.8 µM (inactive)

## CN(C)c1n/c(=N/Cc2cccnc2)ss1
786-0
  GI50: > 10 µM (inactive)
A549
  GI50: > 10 µM (inactive)
CAKI-1
  GI50: > 10 µM (inactive)
CCRF-CEM
  GI50: 0.597 µM (active)
COLO 205
  GI50: > 10 µM (inactive)
DU-145
  GI50: > 10 µM (inactive)
EKVX
  GI50: > 10 µM (inactive)
HCT-15
  GI50: > 10 µM
HL-60
  GI50: 3.24 µM (inactive)
HOP-62
  GI50: > 10 µM (inactive)
HOP-92
  GI50: > 10 µM (inactive)
HT-29
  GI50: > 10 µM (inactive)
IGROV-1
  GI50: > 10 µM (inactive)
K562
  GI50: 1.12 µM (active)
KM12
  GI50: > 10 µM (inactive)
LOX IMVI
  GI50: 8.95 µM (inactive)
M14
  GI50: > 10 µM (inactive)
MDA-MB-231
  GI50: > 10 µM (inactive)
MDA-MB-435
  GI50: > 10 µM (inactive)
MDA-N
  GI50: > 10 µM (inactive)
MOLT-4
  GI50: 3.5 µM (inactive)
Malme-3M
  GI50: > 10 µM (inactive)
NCI-H23
  GI50: > 10 µM (inactive)
OVCAR-4
  GI50: > 10 µM (inactive)
OVCAR-8
  GI50: > 10 µM (inactive)
PC-3
  GI50: > 10 µM (inactive)
RPMI-8226
  GI50: > 10 µM (inactive)
RXF 393
  GI50: > 10 µM (inactive)
SF-268
  GI50: > 10 µM (inactive)
SF-295
  GI50: > 10 µM (inactive)
SK-MEL-28
  GI50: > 10 µM (inactive)
SK-MEL-5
  GI50: > 10 µM (inactive)
SK-OV-3
  GI50: > 10 µM (inactive)
SN12C
  GI50: > 10 µM (inactive)
SNB-75
  GI50: > 10 µM (inactive)
SR
  GI50: 2.09 µM (inactive)
SW-620
  GI50: > 10 µM (inactive)
T47D
  GI50: > 10 µM (inactive)
TK-10
  GI50: > 10 µM (inactive)
UACC-257
  GI50: > 10 µM (inactive)
UACC-62
  GI50: > 10 µM (inactive)

## CCC(C)C1=C(OC(C)=O)[N+]2([O-])Oc3ccc(-c4c(OC(C)=O)c(OC(C)=O)c(-c5ccc(OC(C)=O)cc5)c(OC(C)=O)c4OC(C)=O)cc3OC2(C(C)CC)C(=O)N1OC(C)=O (stereo unspecified)
786-0
  GI50: 10.5 µM (inactive)
A498
  GI50: > 50 µM (inactive)
A549
  GI50: 18 µM (inactive)
ACHN
  GI50: 19.6 µM (inactive)
CAKI-1
  GI50: 34 µM (inactive)
CCRF-CEM
  GI50: 9.57 µM (inactive)
COLO 205
  GI50: 18.8 µM (inactive)
DU-145
  GI50: 19.3 µM (inactive)
EKVX
  GI50: 16.1 µM (inactive)
HCT-116
  GI50: 9.62 µM (inactive)
HCT-15
  GI50: 22.5 µM
HL-60
  GI50: 7.71 µM (inactive)
HT-29
  GI50: 19.9 µM (inactive)
IGROV-1
  GI50: 11.5 µM (inactive)
K562
  GI50: 12.2 µM (inactive)
KM12
  GI50: 19.3 µM (inactive)
LOX IMVI
  GI50: 17.2 µM (inactive)
M14
  GI50: 20.1 µM (inactive)
MCF7
  GI50: 19.6 µM (inactive)
MDA-MB-231
  GI50: 40.3 µM (inactive)
MDA-MB-435
  GI50: 17.5 µM (inactive)
MDA-N
  GI50: 12.3 µM (inactive)
MOLT-4
  GI50: 11.1 µM (inactive)
Malme-3M
  GI50: 18.7 µM (inactive)
NCI-H226
  GI50: 21.1 µM (inactive)
NCI-H23
  GI50: 20.6 µM (inactive)
NCI-H460
  GI50: 18.9 µM (inactive)
NCI-H522
  GI50: 8.53 µM (inactive)
NCI/ADR-RES
  GI50: > 50 µM (inactive)
OVCAR-3
  GI50: 11.4 µM (inactive)
OVCAR-4
  GI50: 16.5 µM (inactive)
OVCAR-5
  GI50: 24 µM (inactive)
OVCAR-8
  GI50: 22.4 µM (inactive)
PC-3
  GI50: 22.5 µM (inactive)
RPMI-8226
  GI50: 10.3 µM (inactive)
RXF 393
  GI50: 29.6 µM (inactive)
SF-268
  GI50: 12.4 µM (inactive)
SF-295
  GI50: 8.69 µM (inactive)
SF-539
  GI50: 42.3 µM (inactive)
SK-MEL-28
  GI50: 19.5 µM (inactive)
SK-MEL-2
  GI50: 14.9 µM (inactive)
SK-MEL-5
  GI50: 11 µM (inactive)
SK-OV-3
  GI50: 43 µM (inactive)
SN12C
  GI50: 34.3 µM (inactive)
SNB-19
  GI50: 30.1 µM (inactive)
SNB-75
  GI50: 14.8 µM (inactive)
SR
  GI50: 13.7 µM (inactive)
SW-620
  GI50: 20.5 µM (inactive)
T47D
  GI50: 10.9 µM (inactive)
TK-10
  GI50: 37.7 µM (inactive)
U-251
  GI50: 23.8 µM (inactive)
UACC-257
  GI50: 30.5 µM (inactive)
UACC-62
  GI50: 9.06 µM (inactive)
UO-31
  GI50: 30.6 µM (inactive)
